Among the test systems are CAKI-1; COLO 205; SK-MEL-28; NCI/ADR-RES; SF-539; MDA-MB-231; 786-0; HOP-92; NCI-H23; HOP-62; OVCAR-5; SF-295; MCF7; MDA-MB-435; SF-268; K562; CCRF-CEM; UACC-62; A498; SR.
Common to all, as to assay: NCI tumour cell line growth inhibition, 48 h

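Protocol summary: plate cells (96-well), add compound at 5 concentrations, incubate 48 h, interpolate endpoints linearly. GI50 = concentration required for 50% inhibition of growth.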 The source made the active and inactive calls. Cut-off read from the data, not from the text of the source: active = GI50 up to about 1.1 µM and inactive = higher.

For `CC1=CC(=O)/C(=C/NC(=S)NCCc2ccccc2)C(=O)O1`, the GI50 in the test on CAKI-1, in the test on COLO 205, in the test with SK-MEL-28, with NCI/ADR-RES, in the test with SF-539 and in the test on MDA-MB-231 was > 100 µM (inactive) each time. Also, the GI50 in the test on 786-0 is 31 µM (inactive); with HOP-92 it was > 100 µM (inactive); in the test on NCI-H23, > 100 µM (inactive); in the test with HOP-62 it was > 100 µM (inactive); with OVCAR-5, > 100 µM (inactive); in the test on SF-295, > 100 µM (inactive). Moreover, the GI50 in the test with MCF7 and in the test with MDA-MB-435 was > 100 µM (inactive) in each case.

In the case of `NS(=O)(=O)c1cccc(NC(=S)NC(=O)Nc2ccc(Cl)c(Cl)c2)c1`, the GI50 with SF-268 was 22.5 µM (inactive); in the test on COLO 205, 20 µM (inactive); in the test with SK-MEL-28, 20.4 µM (inactive); with NCI/ADR-RES it was 15.9 µM (inactive); in the test on SF-539, 20 µM (inactive); with K562, 16.2 µM (inactive). Also, the GI50 in the test on MDA-MB-231 is 17.7 µM (inactive); in the test with 786-0 it was 15.9 µM (inactive); in the test with CCRF-CEM it was 30.2 µM (inactive); with HOP-92, 24 µM (inactive); in the test with NCI-H23, 15.8 µM (inactive); in the test on HOP-62, 15.5 µM (inactive). Also, the GI50 in the test on OVCAR-5 is 25 µM (inactive); in the test with SF-295, 22.6 µM (inactive); in the test with MCF7, 18.3 µM (inactive); in the test on UACC-62, 13.3 µM (inactive); in the test with A498, 12.7 µM (inactive).

Take `C=C(C)C12CC(COC(=O)c3ccccc3)C34OC5(OC1C3C1OC1(CO)C(O)C1(O)C(OC(=O)c3ccccc3)C(C)C(C(C)CCCCCCC5O)C14)O2` (stereo not drawn): the GI50 with SF-268 was 52.1 µM (inactive); in the test with SR it was 18.5 µM (inactive); in the test on CAKI-1, 56.5 µM (inactive); with COLO 205 it was < 0.01 µM (active); with SK-MEL-28 it was > 49.5 µM (inactive); in the test on NCI/ADR-RES, 42.4 µM (inactive). For the same compound, the GI50 was > 70.3 µM (inactive) in the test with SF-539; < 0.01 µM (active) in the test on K562; > 78.2 µM (inactive) in the test with MDA-MB-231; > 61.8 µM (inactive) with 786-0; 26.4 µM (inactive) with CCRF-CEM; > 100 µM (inactive) in the test with HOP-92. Moreover, the GI50 was 56.2 µM (inactive) with NCI-H23; 88.7 µM (inactive) in the test on OVCAR-5; 31.2 µM (inactive) in the test with SF-295; 72.6 µM (inactive) in the test with MCF7; > 100 µM (inactive) in the test on UACC-62; 60.4 µM (inactive) in the test with A498.

For `NNC(=O)c1ccccc1Nc1ccccc1C(=O)NN`, the GI50 in the test with SF-268, in the test on CAKI-1, in the test with COLO 205, in the test on SK-MEL-28, in the test with NCI/ADR-RES and with SF-539 was > 100 µM (inactive) throughout. The GI50 with K562, in the test with MDA-MB-231, with 786-0, with CCRF-CEM, with NCI-H23 and in the test with HOP-62 was > 100 µM (inactive) in each case. The GI50 in the test on OVCAR-5, in the test on SF-295, in the test with MCF7, in the test with MDA-MB-435 and in the test with UACC-62 was > 100 µM (inactive) in each case.

For `Cc1ccc(Nc2nc(C)c(C(=O)CC(=O)C(=O)Nc3ccc(Cl)cc3)s2)cc1`, the GI50 in the test with SF-268 is 49.5 µM (inactive); in the test with SR, > 100 µM (inactive); in the test on CAKI-1, > 100 µM (inactive); in the test on COLO 205 it was > 100 µM (inactive); in the test with SK-MEL-28, > 100 µM (inactive); in the test with SF-539, > 100 µM (inactive). The GI50 is > 100 µM (inactive) in the test on K562; 56.5 µM (inactive) with MDA-MB-231; > 100 µM (inactive) in the test on 786-0; > 100 µM (inactive) in the test on CCRF-CEM; > 100 µM (inactive) in the test with HOP-92; > 100 µM (inactive) with NCI-H23. The GI50 with HOP-62, in the test with OVCAR-5, in the test with SF-295, with MCF7, in the test with MDA-MB-435 and in the test on UACC-62 was > 100 µM (inactive) each time. For the same compound, the GI50 in the test on A498 is > 100 µM (inactive).

As for `CCN(CC)c1ccc(C2Nc3ccc4ccccc4c3C3=C2C(=O)CCC3)cc1` (stereo not drawn), the GI50 with SF-268 was 27.5 µM (inactive); with CAKI-1, 33.7 µM (inactive); with COLO 205, > 100 µM (inactive); in the test with SK-MEL-28, > 100 µM (inactive); in the test with NCI/ADR-RES, 26.6 µM (inactive); with SF-539, 13.1 µM (inactive). Besides, the GI50 was > 100 µM (inactive) in the test with K562; 11.7 µM (inactive) with MDA-MB-231; 19.4 µM (inactive) in the test with 786-0; > 100 µM (inactive) in the test with CCRF-CEM; 75 µM (inactive) in the test with NCI-H23; 20.4 µM (inactive) in the test on HOP-62. In addition, the GI50 in the test on OVCAR-5 was > 100 µM (inactive); in the test with SF-295 it was 24.6 µM (inactive); in the test with MCF7 it was 40.3 µM (inactive); in the test with MDA-MB-435, 54.6 µM (inactive); with UACC-62 it was 24.7 µM (inactive); in the test on A498, 45.4 µM (inactive).

Regarding `Cc1cc(C)c(N[S+]([O-])c2cccc(Cl)c2)c(C)c1` (stereo not drawn), the GI50 in the test on SF-268, with SR, in the test on COLO 205, with SK-MEL-28, in the test on NCI/ADR-RES and with SF-539 was > 100 µM (inactive) throughout. Also, the GI50 in the test on K562, with 786-0, in the test with CCRF-CEM, in the test with HOP-92, with NCI-H23 and in the test on HOP-62 was > 100 µM (inactive) throughout. For the same compound, the GI50 is > 100 µM (inactive) in the test on OVCAR-5; > 100 µM (inactive) in the test on SF-295; > 100 µM (inactive) with MCF7; > 100 µM (inactive) in the test with MDA-MB-435; 29.2 µM (inactive) in the test with A498.

On to `CC1(O)Oc2ccc3ccccc3c2C=C1C(N)=O` (stereo not drawn), for which the GI50 with SF-268 is 71.9 µM (inactive); in the test on SR, 46.5 µM (inactive); in the test on CAKI-1 it was 80.5 µM (inactive); with COLO 205, > 100 µM (inactive); with SK-MEL-28, > 100 µM (inactive); with SF-539, 42.1 µM (inactive). Further, the GI50 was > 100 µM (inactive) with K562; 38.9 µM (inactive) in the test with MDA-MB-231; > 100 µM (inactive) with 786-0; 86.5 µM (inactive) with CCRF-CEM; 77.1 µM (inactive) in the test on HOP-92; > 100 µM (inactive) in the test on NCI-H23. The GI50 in the test on HOP-62 is 36.7 µM (inactive); in the test on SF-295 it was > 100 µM (inactive); in the test on MCF7, > 100 µM (inactive); with MDA-MB-435 it was > 100 µM (inactive); in the test with UACC-62, > 100 µM (inactive); in the test on A498, 28.1 µM (inactive).

For the origin of these results see ChEMBL document CHEMBL1201862, “PubChem BioAssay data set” (2004).
